Here are results for 44 compounds from patent US20250090540A1, “PI3K-ALPHA INHIBITORS AND METHODS OF USE THEREOF” (Relay Therapeutics, Inc., priority 2021, published 2025).

Each structure is given as a SMILES string. pIC50: −log10 of the molar value.

In one assay the target is H1047R PIK3CA enzyme (Homo sapiens, UniProt P42336, H1047R). Kind of assay: ADP-Glo Biochemical PIK3CA Kinase Assay.
Sequence of H1047R PIK3CA enzyme (P42336 whole entry H1047R): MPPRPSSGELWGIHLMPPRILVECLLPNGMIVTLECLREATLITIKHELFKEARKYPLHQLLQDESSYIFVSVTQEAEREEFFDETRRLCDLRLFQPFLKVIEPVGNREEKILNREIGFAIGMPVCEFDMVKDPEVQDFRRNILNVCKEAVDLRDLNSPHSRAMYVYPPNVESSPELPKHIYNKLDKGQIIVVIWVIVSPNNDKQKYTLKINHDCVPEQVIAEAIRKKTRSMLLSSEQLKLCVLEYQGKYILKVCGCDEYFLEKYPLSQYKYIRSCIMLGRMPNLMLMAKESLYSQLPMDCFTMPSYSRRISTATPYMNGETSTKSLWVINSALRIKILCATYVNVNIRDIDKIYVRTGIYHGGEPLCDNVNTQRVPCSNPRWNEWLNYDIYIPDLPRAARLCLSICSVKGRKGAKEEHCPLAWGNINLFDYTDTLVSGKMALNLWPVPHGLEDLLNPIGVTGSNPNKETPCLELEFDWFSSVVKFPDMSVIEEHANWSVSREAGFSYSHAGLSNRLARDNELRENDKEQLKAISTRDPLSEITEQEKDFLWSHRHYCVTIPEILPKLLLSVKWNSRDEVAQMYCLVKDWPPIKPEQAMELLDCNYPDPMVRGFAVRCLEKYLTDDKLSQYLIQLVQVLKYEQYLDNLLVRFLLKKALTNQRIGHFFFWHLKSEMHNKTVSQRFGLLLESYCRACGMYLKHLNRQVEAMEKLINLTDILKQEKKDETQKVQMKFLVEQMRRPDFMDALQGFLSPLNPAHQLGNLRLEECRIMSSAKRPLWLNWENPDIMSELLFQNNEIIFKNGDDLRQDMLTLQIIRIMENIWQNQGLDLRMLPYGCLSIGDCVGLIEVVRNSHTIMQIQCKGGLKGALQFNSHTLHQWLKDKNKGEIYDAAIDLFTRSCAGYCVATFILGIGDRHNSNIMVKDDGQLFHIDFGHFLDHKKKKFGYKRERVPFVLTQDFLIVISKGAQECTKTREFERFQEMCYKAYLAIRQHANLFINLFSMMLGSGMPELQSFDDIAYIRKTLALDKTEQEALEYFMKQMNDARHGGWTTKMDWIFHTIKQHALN
Sequence of H1047R PIK3CA enzyme (P27986 whole entry partner): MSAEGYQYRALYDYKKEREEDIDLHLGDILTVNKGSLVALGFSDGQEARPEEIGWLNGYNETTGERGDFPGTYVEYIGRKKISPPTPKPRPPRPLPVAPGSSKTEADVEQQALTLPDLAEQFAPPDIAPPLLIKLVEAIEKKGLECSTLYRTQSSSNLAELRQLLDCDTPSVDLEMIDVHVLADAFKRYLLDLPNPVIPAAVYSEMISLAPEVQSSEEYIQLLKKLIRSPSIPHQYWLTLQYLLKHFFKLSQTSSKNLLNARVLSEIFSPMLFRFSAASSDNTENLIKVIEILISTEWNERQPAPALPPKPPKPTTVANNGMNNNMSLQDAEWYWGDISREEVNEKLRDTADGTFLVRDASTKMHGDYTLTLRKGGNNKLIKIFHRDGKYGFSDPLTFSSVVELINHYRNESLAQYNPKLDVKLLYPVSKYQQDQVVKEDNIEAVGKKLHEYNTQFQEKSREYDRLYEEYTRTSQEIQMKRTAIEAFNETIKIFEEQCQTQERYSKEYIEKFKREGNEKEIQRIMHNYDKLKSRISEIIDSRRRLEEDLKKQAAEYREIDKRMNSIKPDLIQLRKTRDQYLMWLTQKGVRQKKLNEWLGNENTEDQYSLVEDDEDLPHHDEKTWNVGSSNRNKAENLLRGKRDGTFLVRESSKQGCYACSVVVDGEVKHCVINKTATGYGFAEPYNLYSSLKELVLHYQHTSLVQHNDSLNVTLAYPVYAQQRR
Conditions: not given
On the technique in general: ADP-Glo turns the ADP formed in a reaction into a luminescent signal.
Consider `Cc1ccccc1Nc1ncc(C(=O)N[C@@H]2CC(=O)N(C)C2)cc1NC(=O)c1csc2ccccc12` (racemic) [I-326], for which the pIC50 is 6.30 to 7.00.
Same read-out and setting: then `C[C@@H](NC(=O)c1cnc(N2CCOc3ccccc32)c(NC(=O)c2csc3ccccc23)c1)c1ccccn1` (racemic) [I-337], with 6.30 to 7.00; and `O=C1C[C@@H](CNC(=O)c2cc(F)cc(C(F)(F)F)c2)[C@H](c2cc(F)ccc2Cl)N1` (racemic) [I-801, N-{[(2R,3S)-2-(2-chloro-5-fluorophenyl)-5-oxopyrrolidin-3-yl]methyl}-3-fluoro-5-(trifluoromethyl)benzamide], with 6.30 to 7.00; and `Cc1ccccc1Nc1ncc(C(=O)N[C@H]2CCN(C)C2)cc1NC(=O)c1cc(F)cc(C(F)(F)F)c1` (stereo in doubt) [I-67], with 6.00 to 6.30.
Same read-out and setting: then `C[C@@H](NC(=O)c1cnc(N2CCOc3ccccc32)c(NC(=O)c2csc3ccccc23)c1)c1cccnc1` (stereo in doubt) [I-257], with ≥ 7.00; and `CNC(=O)c1cnc(Nc2cc(F)ccc2Cl)c(NC(=O)NC23C[C@H]4C[C@@H](C2)C[C@@H](C3)C4)c1` [I-799], with 4.00 to 5.00.
In the case of `O=C(Nc1cc(-c2cnn(C(F)F)c2)cnc1Nc1cc(F)ccc1Cl)c1cc(F)cc(C(F)(F)F)c1` [I-803, N-(2-((2-chloro-5-fluorophenyl)amino)-5-(1-(difluoromethyl)-1H-pyrazol-4-yl)pyridin-3-yl)-3-fluoro-5-(trifluoromethyl)benzamide], the pIC50 was 5.00 to 6.00.
Same read-out and setting: then `O=C(Nc1cc(-c2ccc3ncnn3c2)cnc1Nc1cc(F)ccc1Cl)c1cc(F)cc(C(F)(F)F)c1` [I-804], with 4.00 to 5.00.
In turn, `CNC(=O)c1cnc(Nc2cc(F)ccc2Cl)c(Nc2nccc3c(Cl)cccc23)c1` [I-805, 6-((2-chloro-5-fluorophenyl)amino)-5-((5-chloroisoquinolin-1-yl)amino)-N-methylnicotinamide] had a pIC50 of 4.00 to 5.00.
With `O=C(Nc1ccnn1-c1ccccc1)c1cc(F)cc(C(F)(F)F)c1` [I-806], the pIC50 was 4.00 to 5.00.
`O=C(Nc1cccc(=O)n1Cc1ccccc1Cl)c1csc2ccccc12` [I-807] gave a pIC50 of 4.00 to 5.00.
Same read-out and setting: then `CNC(=O)c1cnc(Nc2cc(F)ccc2Cl)c(NC(=O)c2cc(F)cc(C(F)(F)F)c2)c1` [I-810], with 4.00 to 5.00; and `O=C(Nc1cc(-c2ccc3ncnn3c2)cnc1Nc1cc(CO)ccc1Cl)c1cc(F)cc(C(F)(F)F)c1` [I-811], with 4.00 to 5.00; and `CNC(=O)c1cnc(NC(CO)CCO)c(NC(=O)c2cc(F)cc(C(F)(F)F)c2)c1` (centres unmarked) [I-814], with 4.00 to 5.00.
Same read-out and setting: for `O=C1CCCC(c2nc3c(F)cc(C(F)(F)F)cc3[nH]2)N1Cc1cc(F)ccc1Cl` (centres unmarked) [I-815] the value was 4.00 to 5.00.
Same read-out and setting: for `O=C(Nc1cc(-c2ccc3ncnn3c2)cnc1NC(CO)CCO)c1cc(F)cc(C(F)(F)F)c1` (centres unmarked) [I-818] the value was 4.00 to 5.00; for `O=C1NCc2ccccc2C1c1ccccc1-c1nc2c(F)cc(C(F)(F)F)cc2[nH]1` (centres unmarked) [I-820, 4-{2-[4-fluoro-6-(trifluoromethyl)-1H-1,3-benzodiazol-2-yl]phenyl}-1,2,3,4-tetrahydroisoquinolin-3-one], 4.00 to 5.00.
On to `CNC(=O)c1cnc(-n2c(=O)ccc3ccccc32)c(NC(=O)c2cc(F)cc(C(F)(F)F)c2)c1` [I-822], for which the pIC50 was 4.00 to 5.00.
On the same count and under the same terms, for `CNC(=O)c1cc(NC(=O)c2cc(F)cc(C(F)(F)F)c2)c(Nc2cc(F)ccc2Cl)s1` [I-827, 5-((2-chloro-5-fluorophenyl)amino)-4-(3-fluoro-5-(trifluoromethyl)benzamido)-N-methylthiophene-2-carboxamide] the value was 6.00 to 6.30.

The same assay, now with this note: ADP-Glo biochemical PIK3CA kinase assay.
As to `Cc1ccccc1Nc1ncc(C(=O)N[C@@H]2CC(=O)N(C)C2)cc1NC(=O)c1csc2ccccc12` (single isomer, unassigned) [I-435], the pIC50 was ≥ 7.00.
In turn, `CNC(=O)c1cnc(Nc2cccc3[nH]ccc23)c(NC(=O)c2csc3ccccc23)c1` [I-768] had a pIC50 of 6.00 to 6.30.
Still for that read-out and setting: for `Cc1ccccc1Nc1cc(=O)n(CCc2ccncn2)cc1NC(=O)c1csc2ccccc12` [I-769] the value was 5.00 to 6.00; for `CC1COCCN1c1ncc(C(=O)N[C@H]2C[C@@H](C(N)=O)C2)cc1NC(=O)c1csc2ccccc12` (some centres unmarked) [I-770], 5.00 to 6.00; for `COC1CN(c2ncc(C(=O)N[C@H]3C[C@@H](C(C)=O)C3)cc2NC(=O)c2csc3ccccc23)C1` [I-771], 5.00 to 6.00.
Compound `CNC(=O)c1cnc(Nc2cc(F)ccc2Cl)c(NC(=O)c2csc3ccccc23)c1` [I-775] showed a pIC50 of 5.00 to 6.00.
The same measure, in the same setting: for `CNC(=O)c1cnc(Nc2ccccc2C)c(N(CC(N)=O)C(=O)c2csc3ccccc23)c1` [I-776] the value was 5.00 to 6.00.
Same read-out and setting: then `COc1cncc(CNC(=O)c2cc(NC(=O)c3csc4ccccc34)n(CC3CCC3)c(=O)c2)c1` [I-777], with 4.00 to 5.00.
`Nc1c2c(nn1C(=O)c1cc(F)cc(C(F)(F)F)c1)CCCC2` [I-778]: the pIC50 was 4.00 to 5.00.
For `Cc1nn(C(=O)c2cc(F)cc(C(F)(F)F)c2)c(N)c1-c1ccccc1` [I-779], the pIC50 was 5.00 to 6.00.
Still for that read-out and setting: for `Nc1cnc(Nc2cc(F)ccc2Cl)c(NC(=O)c2cc(F)cc(C(F)(F)F)c2)c1` [I-780] the value was 4.00 to 5.00; for `O=C(Nc1cnccc1-n1cccn1)c1cc(F)cc(C(F)(F)F)c1` [I-781], 5.00 to 6.00; for `CC(C)(O)c1cnc(Nc2cc(F)ccc2Cl)c(NC(=O)c2cc(F)cc(C(F)(F)F)c2)c1` [I-782], 5.00 to 6.00.
In turn, `Nc1cnc(Nc2cc(F)ccc2Cl)c(NC(=O)c2nsc3ccccc23)c1` [I-784] gave a pIC50 of 4.00 to 5.00.
Same read-out and setting: then `O=C(NCc1ccccc1CN1CCCCC1)c1cc(F)cc(C(F)(F)F)c1` [I-785], with 4.00 to 5.00; and `O=C(Nc1cc(C2CC2)nn1-c1ccccc1)c1cc(F)cc(C(F)(F)F)c1` [I-786], with 4.00 to 5.00; and `Cc1cccc(-n2nc(C)cc2NC(=O)c2cc(F)cc(C(F)(F)F)c2)c1` [I-787], with 4.00 to 5.00.
Same read-out and setting: for `O=C(Nc1cc(C2CC2)nn1-c1ccccc1F)c1cc(F)cc(C(F)(F)F)c1` [I-788] the value was 4.00 to 5.00; for `Cc1cc(NC(=O)c2cc(F)cc(C(F)(F)F)c2)n(-c2ccccc2F)n1` [I-789], 5.00 to 6.00.
In turn, `COc1nccc(NC(=O)c2cc(F)cc(C(F)(F)F)c2)c1Nc1ccccc1Cl` [I-790] showed a pIC50 of 5.00 to 6.00.
Same read-out and setting: for `Nc1cc(-c2ccc(F)cc2)nn1-c1nc2ccccc2[nH]1` [I-792] the value was 5.00 to 6.00; for `N#Cc1cccc(NC(=O)c2cc(F)cc(C(F)(F)F)c2)c1Cc1ccccc1Cl` [I-793], 6.30 to 7.00; for `O=C(Nc1ccn2cnnc2c1Nc1ccccc1Cl)c1cc(F)cc(C(F)(F)F)c1` [I-794], 4.00 to 5.00.
The compound `CNC(=O)c1cnc(Nc2cc(F)ccc2Cl)c(NC(=O)N2CCc3ccccc32)c1` [I-797, N-{2-[(2-chloro-5-fluorophenyl)amino]-5-(methylcarbamoyl)pyridin-3-yl}-2,3-dihydro-1H-indole-1-carboxamide] gave a pIC50 of 4.00 to 5.00.
In the case of `CNC(=O)c1cnc(Nc2ccccc2C)c(NC(=O)NC23C[C@H]4C[C@@H](C2)C[C@@H](C3)C4)c1` [I-798], the pIC50 was 5.00 to 6.00.

Tested on in another assay: not listed separately
Kind of assay: cells. The note with it: Homo sapiens, MCF-10A, read-out: MCF10A I50.
For the compound `Cc1ccccc1Nc1ncc(C(=O)N[C@@H]2CC(=O)N(C)C2)cc1NC(=O)c1csc2ccccc12` (racemic) [I-326], the pIC50 was 5.00 to 5.30.
In the case of `C[C@@H](NC(=O)c1cnc(N2CCOc3ccccc32)c(NC(=O)c2csc3ccccc23)c1)c1ccccn1` (racemic) [I-337], the pIC50 is 5.00 to 5.30.
On the same count and under the same terms, for `O=C1C[C@@H](CNC(=O)c2cc(F)cc(C(F)(F)F)c2)[C@H](c2cc(F)ccc2Cl)N1` (racemic) [I-801, N-{[(2R,3S)-2-(2-chloro-5-fluorophenyl)-5-oxopyrrolidin-3-yl]methyl}-3-fluoro-5-(trifluoromethyl)benzamide] the value was 5.30 to 6.00; for `Cc1ccccc1Nc1ncc(C(=O)N[C@@H]2CC(=O)N(C)C2)cc1NC(=O)c1csc2ccccc12` (single isomer, unassigned) [I-435], 5.00 to 5.30; for `Cc1ccccc1Nc1ncc(C(=O)N[C@H]2CCN(C)C2)cc1NC(=O)c1cc(F)cc(C(F)(F)F)c1` (stereo in doubt) [I-67], 4.44 to 5.00.
With `C[C@@H](NC(=O)c1cnc(N2CCOc3ccccc32)c(NC(=O)c2csc3ccccc23)c1)c1cccnc1` (stereo in doubt) [I-257], the pIC50 is 5.00 to 5.30.
